Results published in patent US20180116993A1, “MODULATORS OF FARNESOID X RECEPTOR AND METHODS FOR THE USE THEREOF” (XIAMEN UNIVERSITY, priority 2015, published 2018).
Where two headings read alike, the source gives them in different places. Marks after values point to notes of the source that are not given here.

Columns and labels:
[1] = test system: human cervical carcinoma Hela cells; assay: MTT cell viability assay, Hela; format: cell-based; conditions: 48 h, read-out: Cell viability as a percentage of the cells treated with DMSO, Hela
Procedure, shortened: (§1)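 Cells cultured in DMEM with 10% FBS were treated with compounds at 20 uM or 40 uM. Viability was read by MTT and expressed as a percentage of DMSO-treated cells.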

[2] = test system: RA-resistant human colon cancer HCT116 cells; assay: MTT cell viability assay, HCT116; format: cell-based; conditions: 48 h, read-out: Cell viability as a percentage of the cells treated with DMSO, HCT116; for viability at 20 µM: HCT-116, 20 uM; for viability at 40 µM: HCT-116, 40 uM
Procedure, shortened: as §1

[3] = test system: human breast cancer MCF7 cells; assay: MTT cell viability assay, MCF-7; format: cell-based; conditions: 48 h, read-out: Cell viability as a percentage of the cells treated with DMSO, MCF-7
Procedure, shortened: as §1

[4] = test system: human hepatoma HepG2 cells; assay: MTT cell viability assay, HepG2; format: cell-based; conditions: 48 h, read-out: Cell viability as a percentage of the cells treated with DMSO, HepG2
Procedure, shortened: as §1

[5] = target: T1, FXR ligand binding domain (LBD) (Homo sapiens, UniProt Q96RI1); assay: AlphaScreen assay: FXR LBD recruitment of coregulator peptide motifs (SRC2-3, SRC1-2); format: biochemical; conditions: Table 2
T1 construct: made in house
T1 sequence (Q96RI1 262-486 limits assumed): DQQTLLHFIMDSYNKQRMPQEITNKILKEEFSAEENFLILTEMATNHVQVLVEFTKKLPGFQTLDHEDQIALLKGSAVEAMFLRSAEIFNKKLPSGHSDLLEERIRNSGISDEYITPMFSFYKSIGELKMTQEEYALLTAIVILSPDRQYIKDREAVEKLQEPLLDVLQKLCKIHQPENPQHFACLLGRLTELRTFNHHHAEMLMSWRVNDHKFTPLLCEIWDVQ

[6] = test system: db/db mice; assay: Hepatic triglyceride, liver histology, serum ALT and ALP in high-fat diet fed db/db mice; format: in vivo, mouse; conditions: for Hepatic triglyceride (mM/g): vehicle 148 ± 14
Procedure, shortened: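 High-fat diet fed db/db mice aged 8-10 weeks dosed 10 mg/kg compound once daily for 10 days. Liver sections stained with H&E and 0.3% oil red O; hepatic triglyceride measured by tissue assay kit; serum ALP and ALT activities measured by kit.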

[7] = test system: human colorectal adenocarcinoma HCT15 cells; assay: MTT cell viability assay, HCT15; format: cell-based; conditions: 48 h, read-out: Cell viability as a percentage of the cells treated with DMSO, HCT15; for viability at 20 µM: HCT-15, 20 uM; for viability at 40 µM: HCT-15, 40 uM
Procedure, shortened: as §1

[8] = target: T2, full-length FXR (Homo sapiens, UniProt Q96RI1); assay: Cell-based FXR transactivation, EcRE luciferase reporter in COS-7 cells; conditions: Table 2; for Cell-based FXR transactivation Fold changes by 5 μM compound: positive: induction, minus: repression; for EC50: EcRE luciferase reporter
T2 construct: The cells were co-transfected with plasmids encoding full-length FXR and the cognate luciferase reporter EcRE-Luc; expressed in transfected cells; host or cells: COS-7
T2 sequence (Q96RI1 1-486): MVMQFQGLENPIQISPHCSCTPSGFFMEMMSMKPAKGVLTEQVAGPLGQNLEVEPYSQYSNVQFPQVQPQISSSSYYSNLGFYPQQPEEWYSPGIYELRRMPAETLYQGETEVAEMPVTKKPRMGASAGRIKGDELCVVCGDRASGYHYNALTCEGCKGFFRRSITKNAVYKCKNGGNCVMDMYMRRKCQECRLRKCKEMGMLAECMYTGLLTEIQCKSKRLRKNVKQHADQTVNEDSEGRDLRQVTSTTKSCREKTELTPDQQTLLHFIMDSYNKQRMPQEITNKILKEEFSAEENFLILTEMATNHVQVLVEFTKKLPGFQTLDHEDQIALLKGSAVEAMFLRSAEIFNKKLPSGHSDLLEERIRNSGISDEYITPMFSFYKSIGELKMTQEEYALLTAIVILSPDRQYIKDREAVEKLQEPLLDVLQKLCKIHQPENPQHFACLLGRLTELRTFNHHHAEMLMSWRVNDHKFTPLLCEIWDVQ
Procedure, shortened: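 COS-7 cells were transiently cotransfected with full-length FXR, EcRE-Luc reporter and a renilla control. Ligands were added 5 h after transfection, and cells were harvested 24 h later. Firefly luciferase was normalized to renilla in a dual-luciferase read-out.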

[9] = SRC1-2 peptide, read-out: EC50 (μM) of FXR binding by AlphaScreen assay recruit SRC1-2
[10] = SRC2-3 peptide, read-out: EC50 (μM) of FXR binding by AlphaScreen assay recruit SRC2-3
[11] = 10 mg/kg for 10 days, vehicle 377 ± 48, Table 15

Row | Compound | viability at 20 µM [1] | viability at 40 µM [1] | viability at 20 µM [2] | viability at 40 µM [2] | viability at 20 µM [3] | viability at 40 µM [3] | viability at 20 µM [4] | viability at 40 µM [4] | EC50 [5, 9] | EC50 [5, 10] | Hepatic triglyceride (mM/g) ([6]; 10 mg/kg for 10 days) | Serum ALT (U/L) [6, 11] | Serum ALP (U/L) ([6]; 10 mg/kg once daily for 10 days, vehicle 129 ± 15) | Serum ALT (U/L) ([6]; 10 mg/kg once daily for 10 days, vehicle 377 ± 48, Table 17) | viability at 20 µM [7] | viability at 40 µM [7] | Cell-based FXR transactivation Fold changes by 5 μM compound [8] | EC50 [8]
1 | Cc1cc(C(=O)OC2CCC3CCCCC3C2)ccc1O (stereo not shown) [XD-29, decahydro-naphthalen-2-yl 4-hydroxy-3-methylbenzoate] | 96 ± 2% | 90 ± 2% | 100 ± 2% | 96 ± 2% | 100 ± 2% | 88% | 100 ± 2% | 98 ± 2% | < 0.5 µM | < 0.5 µM | 116 ± 11 ^a mM/g | 101 ± 46^b U/L | 69 ± 9^c U/L | 101 ± 46^b U/L | 72 ± 2% | 52 ± 2% | 3 | < 1 µM
2 | CC1(C)C2CCC1(C)C(OC(=O)c1ccc(=O)oc1)C2 (stereo not shown) [XD-9, 1,7,7-trimethyl-bicyclo[2.2.1]-heptan-2-yl 6-oxo-6H-pyran-3-carboxylate] | 80 ± 3% | 59 ± 5% | 58 ± 2% | 25 ± 2% | 72 ± 6% | 31% | 90 ± 3% | 64 ± 3% | 1 to 10 µM | 1 to 10 µM | 93 ± 14 ^a mM/g | 121 ± 33 ^a U/L |  |  | 49 ± 2% | 42 ± 3% | 4 | 1 to 10 µM
